Measurements taken from patent US6875727B2, “Use of macrolides in pest control” (Syngenta Crop Protection, Inc., priority 1998, dated 2005).

What was measured:
Format in all cases: in vivo
[1] = system: Heliothis virescens larvae; test: Spray action on transgenic cotton plants against Heliothis virescens larvae
Source text: (§1) Young transgenic cotton plants which express the δ-endotoxin CryIIIA are sprayed with an aqueous emulsion spray mixture comprising 100, 50, 10, 5, 1 ppm of emamectin-benzoate respectively. After the spray coating has dried on, the cotton plants are populated with 10 adult Anthonomus grandis, 10 Spodoptera littoralis larvae or 10 Heliothis virescens larvae respectively and introduced into a plastic container. Evaluation takes place 3 to 10 days later. The percentage reduction in population, or the percentage reduction in feeding damage (% action), is determined by comparing the number of dead beetles and the feeding damage on the transgenic cotton plants with that of non-transgenic cotton plants which have been treated with an emulsion spray mixture comprising emamectin-benzoate and conventional CryIIIA-toxin at a concentration of in each case 100, 50, 10, 5, 1 ppm respectively.
as §1, with “abamectin” for “emamectin-benzoate”
as §1, with “spinosad” for “emamectin-benzoate”
as §1, with “δ-endotoxin CryIa(c)” for “δ-endotoxin CryIIIA”, “of spinosad” for “of emamectin-benzoate”, “comprising spinosad” for “comprising emamectin-benzoate”
(§2) Young transgenic cotton plants which express the δ-endotoxin CryIa(c) are sprayed with an aqueous emulsion spray mixture comprising 100, 50, 10, 5, 1 ppm of abamectin respectively. After the spray coating has dried on, the cotton plants are populated with 10 adult Anthonomus grandis, 10 Spodoptera littoralis larvae or 10 Heliothis virescens larvae respectively and introduced into a plastic container. Evaluation takes place 3 to 10 days later. […]

Ostrinia nubilalis = test: Plot test, maize cv. KnockOut vs conventional maize, natural infestation with Ostrinia nubilalis; details: for control of Ostrinia nubilalis on plot (a): plot (a) maize cv. KnockOut, spray 200, 100, 50, 10, 5, 1 ppm, evaluation 6 days later; for control level on plot (b): plot (b) conventional maize, also treated with 200, 100, 50, 10, 5, 1 ppm of the endotoxin expressed by KnockOut, 6 days
Description: (§3) A plot (a) planted with maize cv. KnockOut® and an adjacent plot (b) of the same size which is planted with conventional maize, both showing natural infestation with Ostrinia nubilalis, Spodoptera spp. or Heliothis, are sprayed with an aqueous emulsion spray mixture comprising 200, 100, 50, 10, 5, 1 ppm of spinosad. Immediately afterwards, plot (b) is treated with an emulsion spray mixture comprising 200, 100, 50, 10, 5, 1 ppm of the endotoxin expressed by KnockOut®. Evaluation takes place 6 days later. The percentage reduction in population (% action) is determined by comparing the number of dead pests on the plants of plot (a) with that on the plants of plot (b).
as §3, with “sp” for “spp.”, “abamectin.” for “spinosad.”
as §3, with “sp” for “spp.”, “emamectin benzoate.” for “spinosad.”

Spodoptera spp. = test: Plot test, maize cv. KnockOut vs conventional maize, natural infestation with Spodoptera spp.; details: for control of Spodoptera spp. on plot (a): plot (a) maize cv. KnockOut, spray 200, 100, 50, 10, 5, 1 ppm, evaluation 6 days later; for control level on plot (b): plot (b) conventional maize, also treated with 200, 100, 50, 10, 5, 1 ppm of the endotoxin expressed by KnockOut, 6 days
Description: as §3
as §3, with “sp” for “spp.”, “abamectin.” for “spinosad.”
as §3, with “sp” for “spp.”, “emamectin benzoate.” for “spinosad.”

Heliothis spp. = test: Plot test, maize cv. KnockOut vs conventional maize, natural infestation with Heliothis spp.; details: for control of Heliothis on plot (a): plot (a) maize cv. KnockOut, spray 200, 100, 50, 10, 5, 1 ppm, evaluation 6 days later; for control level on plot (b): plot (b) conventional maize, also treated with 200, 100, 50, 10, 5, 1 ppm of the endotoxin expressed by KnockOut, 6 days
Description: as §3
as §3, with “sp” for “spp.”, “abamectin.” for “spinosad.”
as §3, with “sp” for “spp.”, “emamectin benzoate.” for “spinosad.”

[2] = system: Anthonomus grandis adults; test: Spray action on transgenic cotton plants against Anthonomus grandis adults
Source text: as §1
as §1, with “abamectin” for “emamectin-benzoate”
as §1, with “spinosad” for “emamectin-benzoate”
as §1, with “δ-endotoxin CryIa(c)” for “δ-endotoxin CryIIIA”, “of spinosad” for “of emamectin-benzoate”, “comprising spinosad” for “comprising emamectin-benzoate”
as §2

[3] = system: Spodoptera littoralis larvae; test: Spray action on transgenic cotton plants against Spodoptera littoralis larvae
Source text: as §1
as §1, with “abamectin” for “emamectin-benzoate”
as §1, with “spinosad” for “emamectin-benzoate”
as §1, with “δ-endotoxin CryIa(c)” for “δ-endotoxin CryIIIA”, “of spinosad” for “of emamectin-benzoate”, “comprising spinosad” for “comprising emamectin-benzoate”
as §2

[4] = non-transgenic cotton, spray mixture with conventional CryIIIA-toxin, each 100, 50, 10, 5, 1 ppm (comparison to CryIIIA cotton)
[5] = non-transgenic cotton, spray mixture with conventional CryIIIA-toxin, each 100, 50, 10, 5, 1 ppm (comparison to CryIa(c) cotton)
[6] = transgenic cotton expressing δ-endotoxin CryIIIA, spray 100, 50, 10, 5, 1 ppm, evaluation 3 to 10 days
[7] = transgenic cotton expressing δ-endotoxin CryIa(c), spray 100, 50, 10, 5, 1 ppm, evaluation 3 to 10 days

emamectin-benzoate
control of the tested insects (% action: reduction in population or feeding damage) [1, 4]: insufficient | control of the tested insects (% action: reduction in population or feeding damage) [1, 5]: insufficient | control of the tested insects (% action: reduction in population or feeding damage) [1, 6]: superior | control of the tested insects (% action: reduction in population or feeding damage) [1, 7]: superior | control of Ostrinia nubilalis on plot (a) (Ostrinia nubilalis): Improved control | control level on plot (b) (Ostrinia nubilalis): ≤ 80% | control of Spodoptera spp. on plot (a) (Spodoptera spp.): Improved control | control level on plot (b) (Spodoptera spp.): ≤ 80% | control of Heliothis on plot (a) (Heliothis spp.): Improved control | control level on plot (b) (Heliothis spp.): ≤ 80% | control of the tested insects (% action: reduction in population or feeding damage) [2, 4]: insufficient | control of the tested insects (% action: reduction in population or feeding damage) [2, 5]: insufficient | control of the tested insects (% action: reduction in population or feeding damage) [2, 6]: superior | control of the tested insects (% action: reduction in population or feeding damage) [2, 7]: superior | control of the tested insects (% action: reduction in population or feeding damage) [3, 4]: insufficient | control of the tested insects (% action: reduction in population or feeding damage) [3, 5]: insufficient | control of the tested insects (% action: reduction in population or feeding damage) [3, 6]: superior | control of the tested insects (% action: reduction in population or feeding damage) [3, 7]: superior

spinosad
control of the tested insects (% action: reduction in population or feeding damage) [1, 4]: insufficient | control of the tested insects (% action: reduction in population or feeding damage) [1, 5]: insufficient | control of the tested insects (% action: reduction in population or feeding damage) [1, 6]: superior | control of the tested insects (% action: reduction in population or feeding damage) [1, 7]: superior | control of Ostrinia nubilalis on plot (a) (Ostrinia nubilalis): Improved control | control level on plot (b) (Ostrinia nubilalis): ≤ 80% | control of Spodoptera spp. on plot (a) (Spodoptera spp.): Improved control | control level on plot (b) (Spodoptera spp.): ≤ 80% | control of Heliothis on plot (a) (Heliothis spp.): Improved control | control level on plot (b) (Heliothis spp.): ≤ 80% | control of the tested insects (% action: reduction in population or feeding damage) [2, 4]: insufficient | control of the tested insects (% action: reduction in population or feeding damage) [2, 5]: insufficient | control of the tested insects (% action: reduction in population or feeding damage) [2, 6]: superior | control of the tested insects (% action: reduction in population or feeding damage) [2, 7]: superior | control of the tested insects (% action: reduction in population or feeding damage) [3, 4]: insufficient | control of the tested insects (% action: reduction in population or feeding damage) [3, 5]: insufficient | control of the tested insects (% action: reduction in population or feeding damage) [3, 6]: superior | control of the tested insects (% action: reduction in population or feeding damage) [3, 7]: superior

abamectin
control of the tested insects (% action: reduction in population or feeding damage) [1, 4]: insufficient | control of the tested insects (% action: reduction in population or feeding damage) [1, 5]: insufficient | control of the tested insects (% action: reduction in population or feeding damage) [1, 6]: superior | control of the tested insects (% action: reduction in population or feeding damage) [1, 7]: superior | control of Ostrinia nubilalis on plot (a) (Ostrinia nubilalis): Improved control | control level on plot (b) (Ostrinia nubilalis): ≤ 80% | control of Spodoptera spp. on plot (a) (Spodoptera spp.): Improved control | control level on plot (b) (Spodoptera spp.): ≤ 80% | control of Heliothis on plot (a) (Heliothis spp.): Improved control | control level on plot (b) (Heliothis spp.): ≤ 80% | control of the tested insects (% action: reduction in population or feeding damage) [2, 4]: insufficient | control of the tested insects (% action: reduction in population or feeding damage) [2, 5]: insufficient | control of the tested insects (% action: reduction in population or feeding damage) [2, 6]: superior | control of the tested insects (% action: reduction in population or feeding damage) [2, 7]: superior | control of the tested insects (% action: reduction in population or feeding damage) [3, 4]: insufficient | control of the tested insects (% action: reduction in population or feeding damage) [3, 5]: insufficient | control of the tested insects (% action: reduction in population or feeding damage) [3, 6]: superior | control of the tested insects (% action: reduction in population or feeding damage) [3, 7]: superior
